Consider 19 substances from patent US20020052331A1, “Compositions and methods for antisense inhibition of protein translation” (priority 1990, published 2002).

One data set has as its system E-selectin mRNA. Briefly: ELISA of E-selectin expression in HUVECs. As to conditions: for inhibition of E-selectin expression: oligomer concentration of 50 nM. In kind it is cell-based, human. A general note: In an ELISA, binding on a coated surface is turned into a signal by an enzyme label.
The test system of the next data set is VCAM-1 mRNA. Briefly: ELISA of VCAM-1 expression in HUVECs. Conditions: for IC50: read-out: IC50 for inhibition of VCAM-1 expression. Type of data set: cell-based, human.
The test system of data set [1] is ICAM-1 mRNA. Briefly: ICAM-1 expression in U937 cells after electroporation of PNA oligomer (FACS). Type of data set: cell-based, human. Conditions: electroporated into U937 cells. From the text:
A PNA oligomer, ISIS 10535 (SEQ ID NO: 2), was synthesized, which is a shortened version of SEQ ID NO: 1 made as a PNA, with three arginines added at the 5′ end and one lysine added at the 3′ end. This oligomer was electroporated into U937 cells and a potent dose-response was obtained.
Cells were removed from plate surfaces by brief trypsinization with 0.25% trypsin in PBS. Trypsin activity was quenched with a solution of 2% bovine serum albumin and 0.2% sodium azide in PBS (+Mg/Ca). Cells were pelleted by centrifugation at 1000 rpm (Beckman GPR centrifuge), resuspended in PBS and stained with 3 μl/10^5 cells of ICAM-1 specific antibody, CD54-PE (Becton Dickinson, Mansfield Mass.) and 0.1 μg of control conjugated antibody, IgG2b-PE (Pharmingen, San Diego Calif.). Antibodies were incubated with the cells for 30 minutes at 4° C. in the dark, under gentle agitation. Cells were washed and then resuspended in 0.3 ml of FACSFLOW buffer (Becton Dickinson) with 0.5% formaldehyde. Expression of cell surface ICAM-1 was then determined by flow cytometry using a Becton Dickinson FACScan (San Jose, Calif.). ICAM-1 expression was calculated as a percentage of control expression.
Cells were washed in PBS and resuspended in PBS at 1×10^6 cells/ml. […] ICAM-1 expression was quantitated by FACS as in Example 4.

The subject of data set [2] is ICAM-1 mRNA. The data set is described as follows: Reduction of ICAM-1 protein levels in HUVEC cells (LIPOFECTIN delivery, FACS). In kind it is cell-based, human.
The test system of data set [3] is ICAM-1 mRNA. Briefly: ELISA of human ICAM-1 protein expression in HUVECs (mAb84H10). In kind it is cell-based. As to conditions: FIG. 4 experiment.
Data set [4] relates to ICAM-1 mRNA. Briefly: Cell surface ICAM-1 expression in U937 cells after electroporation of MMI oligomers. Type of data set: cell-based, human. As to conditions: six concentrations 4 to 40 μM, N.A. = IC50 not obtained in the given dose range, read-out: Antisense activity (IC50) Electroporate. As for the experimental part:
ISIS 14293-14296 are corresponding oligomers with alternating MMI/P═S backbones.
U937 cells were washed once in cold Opti-MEM (Gibco-BRL, Grand Island, N.Y.) and resuspended at 4×10^6 cells/ml. Oligomer was added to 0.1 ml of cells and incubated for 10 minutes on ice. Cells were transferred to a 1 mm gap electrode (BTX, San Diego, Calif.) and electroporated at 0.75 kV/cm. Cells were incubated at room temperature for 10 minutes and transferred to pre-warmed medium. Cells were allowed to rest for 1.5 hours before ICAM-1 expression was induced with 5 ng/ml TNF-αovernight. Cells were stained with an anti-ICAM-1-PE antibody (Pharmingen, San Diego CA) the next day.

Where [5] appears, read: HUVECs, ELISA, FIG. 5 experiment, read-out: IC50 for reduction of E-selectin expression.
The mark [6] stands for this setting: HUVECs, ELISA, equivalent (second) experiment, read-out: IC50 for reduction of E-selectin expression.
Where [7] appears, read: read-out: IC50 for inhibition of ICAM-1 protein expression.

Read-outs that look alike come from different tables or passages of the source. Strand notation (5' to 3'): a small letter for the sugar, then the base; units joined by * are phosphorothioate-linked, units joined directly phosphodiester-linked; [ ] holds rarer units or linkages, { } end groups; capitals alone tell only the bases. [MMI] = methylene(methylimino) internucleoside backbone linkage; [PRP-N] = 2'-O-propyl ribonucleoside (N: the base); [PRP] = 2'-O-propyl ribonucleoside; e = 2'-O-(2-methoxyethyl) (MOE); [5mC] = 5-methylcytosine; d = 2'-deoxy (DNA); m = 2'-O-methyl; f = 2'-fluoro

“ISIS 4764: SEQ ID NO: 3, P═S deoxy; E-selectin 5′ cap (dG*dA*dA*dG*dT*dC*dA*dG*dC*dC*dA*dA*dG*dA*dA*dC*dA*dG*dC*dT)”: the IC50 was about 10 nM with E-selectin mRNA (setting [5]); 10 nM in the data set on E-selectin mRNA (setting [6]); under 10 nM in the data set on E-selectin mRNA (HUVECs, FIG. 3 experiment, read-out: IC50 for inhibition of E-selectin expression).

Regarding “ISIS 5884: CGATGCAGATACCGCGGAGT (SEQ ID NO: 15), P═S deoxy; VCAM-1 n.t. 1-20 (dC*dG*dA*dT*dG*dC*dA*dG*dA*dT*dA*dC*dC*dG*dC*dG*dG*dA*dG*dT)”, the IC50 in the data set on VCAM-1 mRNA (FIG. 6 experiment) was 10 to 12 nM.

As to “ISIS 9218: SEQ ID NO: 3, P═S all 2′-O-propyl except 3′ nt is deoxy; E-selectin 5′ cap (GAAGTCAGCCAAGAACAGCT; sugars from the 5' end [PRP]19 d1, all phosphorothioate, methylation of C not given here)”, the IC50 in the data set with E-selectin mRNA (setting [6]) is 25 nM.

As for “ISIS 9984: SEQ ID NO: 3 GAAGTCAGCCAAGAACAGCT, P═S all 2′ F except 3′ nt is deoxy; E-selectin 5′ cap (sugars from the 5' end f19 d1, all phosphorothioate, T or U not given here)”, the “IC50 for inhibition of E-selectin expression” value in the data set with E-selectin mRNA (HUVECs, FIG. 3 experiment) is listed as “well below this”. For the same substance, the “relative activity in inhibiting E-selectin protein expression” value in the data set with E-selectin mRNA (among over 30 2′-fluoro phosphorothioate sequences complementary to various regions of the E-selectin message) was “by far the most active”.

As to “ISIS 10535: PNA oligomer (SEQ ID NO: 2), shortened SEQ ID NO: 1, three arginines at the 5′ end and one lysine at the 3′ end (antisense TCTGAGTAGCAGAGGAGC; all peptide nucleic acid (PNA); three arginines at 5' end, one lysine at 3' end)”, the “ICAM-1 level at higher doses” value with ICAM-1 mRNA [1] is “below baseline levels”. In addition, the IC50 in the data set on ICAM-1 mRNA [1] (read-out: IC50 for ICAM-1 reduction) was under 5000 nM.

Consider “ISIS 11158: SEQ ID NO: 1, 2′-methoxyethoxy, phosphodiester (P═O); targeted to ICAM-1 5′ cap (antisense TCTGAGTAGCAGAGGAGCTC; all 2'-MOE, all phosphodiester, methylation of C not given here)”, for which, in the data set with ICAM-1 mRNA [2] (HUVECs), the “ICAM-1 protein expression at the oligonucleotide concentrations of the Northern experiment” value is recorded as “completely inhibited”. For the same substance, the IC50 in the data set on ICAM-1 mRNA [2] (read-out: IC50 (concentration required for 50% inhibition of ICAM-1 levels), HUVEC cells) is about 9 nM; with ICAM-1 mRNA [3] (setting [7]), about 5 nM; in the data set with ICAM-1 mRNA [4], 1000 nM.

On to “ISIS 11205: SEQ ID NO: 3, P═S all 2′ F except 3′ nt is deoxy, all C's 5meC; E-selectin 5′ cap (antisense GAAGTCAGCCAAGAACAGCT; sugars from the 5' end f19 d1, all C 5-methyl, all phosphorothioate, T or U not given here)”, for which the IC50 with E-selectin mRNA (setting [5]) and in the data set with E-selectin mRNA (setting [6]) was under 3 nM throughout. In addition, the “inhibition of E-selectin expression” value in the data set on E-selectin mRNA (HUVECs) is about 100%.

For “ISIS 11928: SEQ ID NO: 3, P═S all 2′-MOE except 3′ nt is deoxy, all C's 5meC; E-selectin 5′ cap (antisense eG*eA*eA*eG*eT*e[5mC]*eA*eG*e[5mC]*e[5mC]*eA*eA*eG*eA*eA*e[5mC]*eA*eG*e[5mC]*dT)”, the IC50 in the data set with E-selectin mRNA (setting [5]) and with E-selectin mRNA (setting [6]) was under 3 nM each time. The “inhibition of E-selectin expression” value with E-selectin mRNA (HUVECs) is reported as about 100%.

Regarding “ISIS 13181: SEQ ID NO: 15 sequence, P═S all 2′ F; VCAM-1 n.t. 1-20 (antisense CGATGCAGATACCGCGGAGT; sugars from the 5' end f19 d1, all phosphorothioate, T or U not given here)”, in the data set with VCAM-1 mRNA (FIG. 6 experiment), the IC50 is under 10 nM. The “inhibition of VCAM-1 expression” value with VCAM-1 mRNA (highest dose tested, 100 nM) is recorded as 100%.

As to “ISIS 13182: SEQ ID NO: 15, P═S all 2′-MOE, all C's are 5meC; VCAM-1 n.t. 1-20 (antisense e[5mC]*eG*eA*eT*eG*e[5mC]*eA*eG*eA*eT*eA*e[5mC]*e[5mC]*eG*e[5mC]*eG*eG*eA*eG*dT)”, the IC50 in the data set with VCAM-1 mRNA (FIG. 6 experiment) was under 10 nM.

Take “ISIS 13183: SEQ ID NO: 15, P═O all 2′-MOE, all C's are 5meC; VCAM-1 n.t. 1-20 (antisense e[5mC]eGeAeTeGe[5mC]eAeGeAeTeAe[5mC]e[5mC]eGe[5mC]eGeGeAeGdT)”: in the data set with VCAM-1 mRNA (FIG. 6 experiment), the IC50 was under 10 nM.

As to “ISIS 13884: GGCTGAGGTTGCAACTCTGA (SEQ ID NO: 9), uniform P═O/2′MOE; ICAM-1 n.t. 16-35 (antisense eGeGe[5mC]eTeGeAeGeGeTeTeGe[5mC]eAeAe[5mC]eTe[5mC]eTeGdA)”, the IC50 in the data set on ICAM-1 mRNA [3] (setting [7]) was about 40 nM.

Take “ISIS 13886: GCAACTCTGAGTAGCAGAGG (SEQ ID NO: 10), uniform P═O/2′MOE; ICAM-1 n.t. 6-25 (antisense eGe[5mC]eAeAe[5mC]eTe[5mC]eTeGeAeGeTeAeGe[5mC]eAeGeAeGdG)”: the IC50 was over 50 nM in the data set on ICAM-1 mRNA [3] (setting [7]) and about 60 nM in the data set with ICAM-1 mRNA [3] (tested only up to 50 nM, read-out: estimated IC50 by extrapolation of the dose-response curve).

Turning to “ISIS 14040: SEQ ID NO: 15, P═S all 2′-O-propyl, all C's are 5meC; VCAM-1 n.t. 1-20 (antisense [PRP-5mC]*[PRP-G]*[PRP-A]*[PRP-T]*[PRP-G]*[PRP-5mC]*[PRP-A]*[PRP-G]*[PRP-A]*[PRP-T]*[PRP-A]*[PRP-5mC]*[PRP-5mC]*[PRP-G]*[PRP-5mC]*[PRP-G]*[PRP-G]*[PRP-A]*[PRP-G]*dT)”, in the data set on VCAM-1 mRNA (subsequent experiment), the IC50 was under 10 nM.

As to “ISIS 14041: SEQ ID NO: 15, P═S all 2′-O-methyl, all C's are 5meC; VCAM-1 n.t. 1-20 (CGATGCAGATACCGCGGAGT; sugars from the 5' end m19 d1, all C 5-methyl, all phosphorothioate, T or U not given here)”, the IC50 with VCAM-1 mRNA (subsequent experiment) is under 10 nM.

Turning to “ISIS 14043: SEQ ID NO: 3, P═S all 2′-O-methyl except 3′ nt is deoxy, all C's 5meC; E-selectin 5′ cap (GAAGTCAGCCAAGAACAGCT; sugars from the 5' end m19 d1, all C 5-methyl, all phosphorothioate, T or U not given here)”, the IC50 with E-selectin mRNA (setting [6]) came out at 10 nM.

“ISIS 14290: T*GA*GT*AG*CA*GA*GG*AG*CT*C (SEQ ID NO: 12), alternating P═O/MMI; ICAM-1 n.t. 1-18 (TGAGTAGCAGAGGAGCTC; linkages [MMI]o[MMI]o[MMI]o[MMI]o[MMI]o[MMI]o[MMI]o[MMI]o[MMI] (s phosphorothioate, o phosphodiester), sugars by position and methylation of C not given here; 3'-terminal nucleotide 2'-deoxy, non-terminal cytosines 5-methylated)”: the IC50 in the data set on ICAM-1 mRNA [4] was 7000 nM.

For the substance “ISIS 14292: T*AG*CA*GA*GG*AG*CT*C (SEQ ID NO: 14), alternating P═O/MMI; ICAM-1 n.t. 1-14 (TAGCAGAGGAGCTC; linkages [MMI]o[MMI]o[MMI]o[MMI]o[MMI]o[MMI]o[MMI] (s phosphorothioate, o phosphodiester), sugars by position and methylation of C not given here; 3'-terminal nucleotide 2'-deoxy, non-terminal cytosines 5-methylated)”, the IC50 in the data set on ICAM-1 mRNA [4] was 15000 nM.

For “ISIS 14295: A*GT*AG*CA*GA*GG*AG*CT*C (SEQ ID NO: 13), alternating P═S/MMI; ICAM-1 n.t. 1-16 (AGTAGCAGAGGAGCTC; chemistry not fully specified)”, the IC50 in the data set on ICAM-1 mRNA [4] stood at 35000 nM.
